In patent US12600721B2, “TYK2 inhibitors and uses thereof” (Sudo Biosciences Limited, priority 2021, dated 2026):

Experiments:
[1] = system: TYK2 Pseudokinase (JH2); assay: HEK-Blue IL-23 reporter assay (SEAP) for profiling TYK2 pseudokinase (JH2) inhibition; type: cell-based; settings: HEK-Blue IL-23 cells, 10 ng/mL human recombinant IL-23, SEAP reporter; read-out: IL23 IC50 (TYK2 inhibitory activity)
Experimental: (§1) HEK-Blue™ IL-23 and IFNα/β cells with a stably-integrated cytokine receptor and STAT3 or STAT1 express STAT-inducible secreted embryonic alkaline phosphatase (SEAP) reporter gene upon cytokine stimulation. These cells are plated in DMEM (Gibco) containing 10% heat-inactivated FBS (Gibco) and 100 U/mL PenStrep (Gibco) at 37° C. under 5% CO2 conditions for 20-22 hours. The cells are then pretreated with serially diluted test compounds for 60 min prior to stimulation with either 10 ng/mL human recombinant IL-23 (Miltenyl Biotech) or 1 ng/mL human recombinant IFNα (InvivoGen) for 22-24 hours for IL-23 or 16-18 h for IFNα. SEAP induction is measured using the QUANTI Blue™ Solution (InvivoGen) according to the manufacturer's instructions.

[2] = system: TYK2 Pseudokinase (JH2); assay: HEK-Blue IFNα/β reporter assay (SEAP) for profiling TYK2 pseudokinase (JH2) inhibition; type: cell-based; settings: HEK-Blue IFNα/β cells, 1 ng/mL human recombinant IFNα, read-out: IFNα IC50 (TYK2 inhibitory activity)
Experimental: as §1

[3] = target: T1, TYK2-JH1 (Homo sapiens, UniProt P29597); assay: HTRF-based selectivity assay, TYK2 catalytic domain; type: biochemical; settings: kinase domain (JH1), 20 μM ATP
T1 construct: using a recombinant purified His or GST-tagged catalytic domain for each enzyme; made in house
T1 sequence (P29597 897-1176 limits assumed): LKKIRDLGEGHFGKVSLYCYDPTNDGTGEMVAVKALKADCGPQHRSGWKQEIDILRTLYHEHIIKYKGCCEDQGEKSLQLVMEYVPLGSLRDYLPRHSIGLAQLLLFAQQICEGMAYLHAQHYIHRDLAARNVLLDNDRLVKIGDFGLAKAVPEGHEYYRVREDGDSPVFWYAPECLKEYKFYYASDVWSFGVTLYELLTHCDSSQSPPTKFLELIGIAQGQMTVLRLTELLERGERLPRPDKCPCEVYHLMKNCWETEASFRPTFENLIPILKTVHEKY
Experimental: (§2) The ability of compounds to inhibit the activity of JAK1, JAK2, JAK3 and TYK2 is measured using a recombinant purified His or GST-tagged catalytic domain for each enzyme (JAK1, JAK2 and TYK2 are generated in-house; JAK3 was purchased from Carna biosciences, Cat #08-046) in an HTRF format biochemical assay. The reactions employs a commercial peptide substrate from Cisbio (Cat #62TK0PEC). The basic assay protocol is as follows: first, 2.5 μL of diluted compounds (4×) in DMSO are dispensed into a 384-well Optiplate. Next, 2.5 μL of enzyme (final concentrations for enzymes are: TYK2-700 ng/mL, JAK1-80.6 ng/ml, JAK2-2.1 ng/ml and JAK3-171.8 ng/mL) is added and incubated at RT for 5-20 min. Finally, 5 μl of mixture of 2×ATP [Final concentration 20 μM for TYK2, 21.43 μM for JAK1, 14.7 μM for JAK2 and 2.12 μM for JAK3]+2× Substrate [Final concentration 217 nM for TYK2, 454.7 nM for JAK1, 200 nM for JAK2 and 257.4 nM for JAK3] is added to 384 well Optiplate. Composition of Kinase assay buffer used in the assay is as follows: HEPES 50 mM, EGTA 1 mM, MgCl2 10 mM, DTT 2 mM, Tween-20 0.01% and water. Then the plates are shaken and then incubated at 26.5° C. for 60 min.

[4] = target: T2, JAK1-JH1 (Homo sapiens, UniProt P23458); assay: HTRF-based selectivity assay, JAK1 catalytic domain; type: biochemical; settings: kinase domain (JH1), 21.43 μM ATP
T2 construct: using a recombinant purified His or GST-tagged catalytic domain for each enzyme; made in house
T2 sequence (P23458 875-1153 limits assumed): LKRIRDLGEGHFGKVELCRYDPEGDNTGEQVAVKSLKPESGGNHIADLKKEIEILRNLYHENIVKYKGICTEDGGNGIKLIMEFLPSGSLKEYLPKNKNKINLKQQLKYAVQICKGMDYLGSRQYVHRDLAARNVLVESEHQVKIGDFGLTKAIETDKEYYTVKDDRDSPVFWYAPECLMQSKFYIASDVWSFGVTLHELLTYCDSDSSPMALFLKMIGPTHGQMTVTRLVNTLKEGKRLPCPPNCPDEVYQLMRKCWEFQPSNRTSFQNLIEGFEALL
Experimental: as §2

[5] = target: T3, JAK2-JH1 (Homo sapiens, UniProt O60674); assay: HTRF-based selectivity assay, JAK2 catalytic domain; type: biochemical; settings: kinase domain (JH1), 14.7 μM ATP
T3 construct: using a recombinant purified His or GST-tagged catalytic domain for each enzyme; made in house
T3 sequence (O60674 849-1124 limits assumed): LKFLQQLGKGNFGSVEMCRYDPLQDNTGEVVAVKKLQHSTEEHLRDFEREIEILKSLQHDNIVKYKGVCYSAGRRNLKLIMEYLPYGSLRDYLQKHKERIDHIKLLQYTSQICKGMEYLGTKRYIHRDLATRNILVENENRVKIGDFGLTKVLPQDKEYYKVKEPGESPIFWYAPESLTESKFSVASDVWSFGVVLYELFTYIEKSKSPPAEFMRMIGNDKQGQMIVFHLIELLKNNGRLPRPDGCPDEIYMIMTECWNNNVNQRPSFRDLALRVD
Experimental: as §2

[6] = target: T4, JAK3-JH1 (Homo sapiens, UniProt P52333); assay: HTRF-based selectivity assay, JAK3 catalytic domain; type: biochemical; settings: kinase domain (JH1), 2.12 μM ATP
T4 construct: using a recombinant purified His or GST-tagged catalytic domain for each enzyme; purchased Carna biosciences 08-046
T4 sequence (P52333 822-1111 limits assumed): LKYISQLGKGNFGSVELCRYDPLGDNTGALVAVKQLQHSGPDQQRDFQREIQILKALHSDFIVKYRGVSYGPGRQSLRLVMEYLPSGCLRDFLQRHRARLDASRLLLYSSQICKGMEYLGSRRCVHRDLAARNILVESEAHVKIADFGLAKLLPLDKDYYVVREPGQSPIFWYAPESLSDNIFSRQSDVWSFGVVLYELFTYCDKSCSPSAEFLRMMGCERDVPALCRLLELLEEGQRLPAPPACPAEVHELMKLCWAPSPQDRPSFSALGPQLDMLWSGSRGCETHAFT
Experimental: as §2

[7] = system: HEK-Blue IL-2 reporter cells; assay: HEK-Blue IL-2 reporter assay (SEAP) for determining selectivity; type: cell-based; settings: HEK-Blue IL-2 cells, 4 ng/ml human recombinant IL-2, SEAP reporter
Experimental: (§3) HEK-Blue™ IL-2 and IFNγ reporter cells with a stably-integrated cytokine receptor and STAT5 or STAT1 express STAT-inducible secreted embryonic alkaline phosphatase (SEAP) reporter gene upon cytokine stimulation. These cells were plated in DMEM (Gibco) containing 10% heat-inactivated FBS (Gibco) and 100 U/mL PenStrep (Gibco) at 37° C. under 5% CO2 conditions for 20-22 hours. The cells were then pretreated with serially diluted test compounds for 60 min prior to stimulation with either 4 ng/ml human recombinant IL-2 (Miltenyl Biotech) or 50 ng/ml human recombinant IFNγ (InvivoGen) for 24 hours. SEAP induction was measured using the QUANTI-Blue™ Solution (InvivoGen) according to the manufacturer's instructions.

[8] = system: HEK-Blue IFNγ reporter cells; assay: HEK-Blue IFNγ reporter assay (SEAP) for determining selectivity; type: cell-based; settings: 50 ng/ml human recombinant IFNγ, read-out: IFN-γ IC50 (SEAP selectivity)
Experimental: as §3

Row | Compound | IC50 [1] [nM] | IC50 [2] [nM] | IC50 [3] [nM] | IC50 [4] [nM] | IC50 [5] [nM] | IC50 [6] [nM] | IC50 [7] [nM] | IC50 [8] [nM]
1 | [2H]C([2H])([2H])NC(=O)c1nnc(Nc2ccc(F)cn2)cc1Nc1cccc2c1N(C)Cc1cccnc1-2 [Compound 2, 6-((5-fluoropyridin-2-yl)amino)-N-(methyl-d3)-4-((6-methyl-5,6-dihydrobenzo[h][1,6]naphthyridin-7-yl)amino)pyridazine-3-carboxamide] | < 30 | < 30 | > 1000 | > 1000 | > 1000 | > 1000 | > 1000 | > 1000
2 | [2H]C([2H])([2H])NC(=O)c1cnc(NC(=O)C2CC2)cc1Nc1cccc2c1N(C)Cc1cnn(C)c(=O)c1-2 [Compound 28, 6-(cyclopropanecarboxamido)-4-((2,6-dimethyl-1-oxo-1,2,5,6-tetrahydropyridazino[4,5-c]quinolin-7-yl)amino)-N-(methyl-d3)nicotinamide] | < 30 | < 30 | > 1000 | > 1000 | > 1000 | > 1000 | > 1000 | 30 to 300
3 | [2H]C([2H])([2H])NC(=O)c1nnc(NC(=O)C2CC2)cc1Nc1cccc2c1N(C([2H])([2H])[2H])Cc1nccnc1-2 [Compound 18, 6-(cyclopropanecarboxamido)-N-(methyl-d3)-4-((6-(methyl-d3)-5,6-dihydropyrazino[2,3-c]quinolin-7-yl)amino)pyridazine-3-carboxamide] | < 30 | < 30 | > 1000 | > 1000 | > 1000 | > 1000 | 300 to 1000 | 30 to 300
4 | [2H]C([2H])([2H])NC(=O)c1cnc(NC(=O)C2CC2)cc1Nc1nccc2c1N(C)Cc1nccnc1-2 [Compound 14, 6-(cyclopropanecarboxamido)-N-(methyl-d3)-4-((6-methyl-5,6-dihydropyrazino[2,3-c][1,7]naphthyridin-7-yl)amino)nicotinamide] | < 30 | < 30 |  |  |  |  | > 1000 | 
5 | [2H]C([2H])([2H])NC(=O)c1cnc(NC(=O)C2CC2)cc1Nc1cccc2c1N(C)Cc1nccnc1-2 [Compound 8, 6-(cyclopropanecarboxamido)-N-(methyl-d3)-4-((6-methyl-5,6-dihydropyrazino[2,3-c]quinolin-7-yl)amino)nicotinamide] | < 30 | < 30 | > 1000 | > 1000 | > 1000 | > 1000 | > 1000 | 30 to 300
6 | [2H]C([2H])([2H])NC(=O)c1cnc(NC(=O)C2CC2)cc1Nc1nccc2c1N(C)Cc1cccnc1-2 [Compound 19, 6-(cyclopropanecarboxamido)-N-(methyl-d3)-4-((6-methyl-5,6-dihydropyrido[3,4-h][1,6]naphthyridin-7-yl)amino)nicotinamide] | < 30 | < 30 |  |  |  |  | > 1000 | 300 to 1000
7 | [2H]C([2H])([2H])NC(=O)c1cnc(NC(=O)C2CC2)cc1Nc1cccc2c1N(C)C([2H])([2H])c1ccc(C)nc1-2 [Compound 24, 6-(cyclopropanecarboxamido)-4-((2,6-dimethyl-5,6-dihydrobenzo[h][1,6]naphthyridin-7-yl-5,5-d2)amino)-N-(methyl-d3)nicotinamide] | < 30 | 30 to 300 |  |  |  |  | > 1000 | > 1000
8 | [2H]C([2H])([2H])NC(=O)c1cnc(NC(=O)C2CC2)cc1Nc1cccc2c1N(C)C([2H])([2H])c1cccnc1-2 [Compound 20, 6-(cyclopropanecarboxamido)-N-(methyl-d3)-4-((6-methyl-5,6-dihydrobenzo[h][1,6]naphthyridin-7-yl-5,5-d2)amino)nicotinamide] | < 30 | < 30 |  |  |  |  | > 1000 | 30 to 300
9 | [2H]C([2H])([2H])NC(=O)c1nnc(NC(=O)C2CC2)cc1Nc1cccc2c1N(C)C([2H])([2H])c1ccc(C(F)(F)F)nc1-2 [Compound 26, 6-(cyclopropanecarboxamido)-N-(methyl-d3)-4-((6-methyl-2-(trifluoromethyl)-5,6-dihydrobenzo[h][1,6]naphthyridin-7-yl-5,5-d2)amino)pyridazine-3-carboxamide] | 300 to 1000 | > 1000 |  |  |  |  | > 1000 | 30 to 300
10 | [2H]C([2H])([2H])NC(=O)c1nnc(NC(=O)C2CC2)cc1Nc1cccc2c1N(C)C([2H])([2H])c1ccc(C)nc1-2 [Compound 23, 6-(cyclopropanecarboxamido)-4-((2,6-dimethyl-5,6-dihydrobenzo[h][1,6]naphthyridin-7-yl-5,5-d2)amino)-N-(methyl-d3)pyridazine-3-carboxamide] | < 30 | < 30 |  |  |  |  | > 1000 | 30 to 300
11 | CNC(=O)c1cnc(NC(=O)C2CC2)cc1Nc1cccc2c1N(C)Cc1cccnc1-2 [Compound 15, 6-(cyclopropanecarboxamido)-N-methyl-4-((6-methyl-5,6-dihydrobenzo[h][1,6]naphthyridin-7-yl)amino)nicotinamide] | < 30 | < 30 |  |  |  |  | > 1000 | 30 to 300
12 | [2H]C([2H])([2H])NC(=O)c1nnc(NC(=O)C2CC2)cc1Nc1cccc2c1N(C)C([2H])([2H])c1cc(F)cnc1-2 [Compound 21, 6-(cyclopropanecarboxamido)-4-((3-fluoro-6-methyl-5,6-dihydrobenzo[h][1,6]naphthyridin-7-yl-5,5-d2)amino)-N-(methyl-d3)pyridazine-3-carboxamide] | < 30 | 30 to 300 |  |  |  |  | 300 to 1000 | 30 to 300
13 | [2H]C([2H])([2H])NC(=O)c1cnc(NC(=O)C2CC2)cc1Nc1cccc2c1N(C)C([2H])([2H])c1ccc(C(F)(F)F)nc1-2 [Compound 25, 6-(cyclopropanecarboxamido)-N-(methyl-d3)-4-((6-methyl-2-(trifluoromethyl)-5,6-dihydrobenzo[h][1,6]naphthyridin-7-yl-5,5-d2)amino)nicotinamide] | 30 to 300 | 300 to 1000 |  |  |  |  |  | 
14 | [2H]C([2H])([2H])NC(=O)c1cnc(NC(=O)C2CC2)cc1Nc1cccc2c1N(C)C([2H])([2H])c1cc(F)cnc1-2 [Compound 22, 6-(cyclopropanecarboxamido)-4-((3-fluoro-6-methyl-5,6-dihydrobenzo[h][1,6]naphthyridin-7-yl-5,5-d2)amino)-N-(methyl-d3)nicotinamide] | < 30 | 30 to 300 |  |  |  |  |  | 
